Measurements as given in US5858684A, “Method of screening calcium receptor-active molecules” (priority 1995, dated 1999).

Tests used:
[1] = test system: human parathyroid calcium receptor (HuPCaR 5.2) in HEK293 cells; experiment: intracellular calcium in HEK293 cells transfected with HuPCaR 5.2; type: cell-based; settings: Ca2+ 10 mM; Mg2+ 20 mM
Description: Cells obtained from the pool of hygromycin selected HEK293 cells transfected with Cep4B containing the HuPCaR 5.2 insert were plated on collagen coated Aklar squares which had been placed into individual wells of 12-well tissue culture plates. Two to six days later, medium was removed and the cells washed with balanced salt solution and 1 ml of buffer containing 1 μM fura2-AM, 1 mM CaCl2 and 0.1% BSA and 1 mM CaCl2. Measurements of fluorescence in response to calcium receptor agonists were performed at 37° C. in a spectrofluorimeter using excitation and emission wavelengths of 340 and 510 nm, respectively. For signal calibration, Fmax was determined after addition of ionomycin (40 μM) and the apparent Fmin was determined by addition of 0.3M EGTA, 2.5M Tris-HCl; pH 10.

[2] = serum ionized Ca2+ in 5/6 nephrectomized rats (secondary hyperparathyroidism model); type: in vivo, rat; settings: 10 mg/kg i.p.; within 2 hours
Source text: An accepted and widely used animal model of secondary hyperparathyroidism arising from chronic renal failure is the 5/6 nephrectomized rat. Animals receiving such surgery become initially hypocalcemic and, to maintain serum Ca^2+ levels, there is a compensatory hyperplasia of the parathyro:Ld glands and elevated levels of circulating PTH. Male Spracue-Dawley rats (250 g) received a 5/6 nephrectomy and were allowed to recover for 2 weeks. At this time they were normocalcemic (due to elevated levels of serum PTH).

[3] = biological target: T1, calcium receptor expressed from bovine parathyroid cell mRNA in Xenopus oocytes (Bos taurus, UniProt P35384); experiment: Cl- current in Xenopus oocytes injected with bovine parathyroid mRNA; type: cell-based; settings: 30 μM
T1 sequence (P35384 20-1085): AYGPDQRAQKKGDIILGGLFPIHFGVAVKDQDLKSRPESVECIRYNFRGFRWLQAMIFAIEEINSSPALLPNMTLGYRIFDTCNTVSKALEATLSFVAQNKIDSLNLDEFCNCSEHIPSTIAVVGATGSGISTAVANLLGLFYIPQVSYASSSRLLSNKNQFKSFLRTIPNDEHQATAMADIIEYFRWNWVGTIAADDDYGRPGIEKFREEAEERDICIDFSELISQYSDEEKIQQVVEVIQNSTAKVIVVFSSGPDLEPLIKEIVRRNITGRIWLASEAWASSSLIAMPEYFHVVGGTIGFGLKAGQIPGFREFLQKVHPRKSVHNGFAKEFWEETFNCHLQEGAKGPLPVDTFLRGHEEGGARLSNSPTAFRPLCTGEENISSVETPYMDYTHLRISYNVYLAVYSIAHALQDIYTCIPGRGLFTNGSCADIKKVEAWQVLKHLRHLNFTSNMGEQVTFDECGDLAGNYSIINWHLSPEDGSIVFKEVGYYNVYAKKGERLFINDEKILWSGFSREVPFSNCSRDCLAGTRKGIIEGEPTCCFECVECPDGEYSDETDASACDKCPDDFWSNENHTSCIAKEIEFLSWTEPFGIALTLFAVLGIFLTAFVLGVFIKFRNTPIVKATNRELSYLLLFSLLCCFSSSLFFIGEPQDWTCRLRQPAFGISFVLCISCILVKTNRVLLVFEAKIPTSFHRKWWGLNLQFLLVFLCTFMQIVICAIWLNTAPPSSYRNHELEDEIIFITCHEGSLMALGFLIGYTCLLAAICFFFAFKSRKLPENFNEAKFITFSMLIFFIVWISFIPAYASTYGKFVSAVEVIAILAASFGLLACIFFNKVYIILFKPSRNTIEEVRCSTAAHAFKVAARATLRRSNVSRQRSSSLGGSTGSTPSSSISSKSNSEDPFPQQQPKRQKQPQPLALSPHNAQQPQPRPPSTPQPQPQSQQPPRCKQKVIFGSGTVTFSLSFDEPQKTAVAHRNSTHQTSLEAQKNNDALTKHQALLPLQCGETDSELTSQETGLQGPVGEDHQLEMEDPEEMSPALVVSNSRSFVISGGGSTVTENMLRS
Description: Glass capillary tubes (1 mm diameter) were pulled to a fine tip and manually broken to achieve a tip diameter of about 15 μmeters. A droplet of mRNA (1 ng/nl in diethylpyrocarbonate (DEPC)-treated water) was placed onto […]® and drawn into the capillary tube by suction. The capillary tube was then connected to a picospritzer (WPI Instruments) and the volume of the air-pulsed droplets adjusted to deliver 50 ng of mRNA (typically 50 nl). A 35-mm culture dish with a patch of nylon stocking fixed to the bottom was used to secure the oocytes during injection of mRNA into the vegetal pole. The injected oocytes were placed into a 35-mm culture dish containing MBS, 100 μg/ml penicillin and 100 μg/ml streptomycin and incubated at 18° C. for 3 days.
Following incubation, an oocyte was placed into a 100-μl plastic chamber and superfused with MBS at a flow rate of 0.5 ml/min using a peristaltic pump. Test molecules or inorganic polycations were added by rapidly moving the tubing into different buffers. Recording and current-passing electrodes were constructed from thin-wall capillary tubing pulled to a resistance of 1-3 Mohms and filled with 3M KCl. […] Currents were recorded directly onto a strip chart recorder.

[4] = hypocalcemic response in parathyroidectomized rats; type: in vivo, rat; settings: NPS R-467 10 mg/kg i.p., 6 hours; NPS R-568 oral
Source text: To determine the primary target tissue upon which NPS R-467 acts to cause a hypocalcemic response, the parathyroid glands in rats were surgically removed. Animals receiving a total parathyroidectomy become hypocalcemic and are largely dependent upon dietary calcium to maintain serum Ca^2+ homeostasis.

[5] = plasma calcitonin in rats; type: in vivo, rat; settings: p.o.
[6] = hypocalcemic response in thyroidectomized rats; type: in vivo, rat; settings: 3 to 100 mg/kg p.o.
Source text: In subsequent studies, rats received a thyroidectomy (parathyroid glands intact). This surgical procedure effectively removed the C-cells secreting calcitonin and therefore enabled the relative contributions of PTH and calcitonin to the hypocalcemic effect of this compound to be determined. […] The only difference was that the rate of onset of the hypocalcemic response was somewhat delayed in thyroidectomized animals. […] Stimulatory effects of this compound on calcitonin secretion increases the rate of onset, but not the extent, of hypocalcemia.

[7] = serum ionized calcium in a human; type: in vivo; settings: higher oral doses
Source text: (§1) A range of single oral doses was used to assess safety, tolerance, and changes in primary hyperparathyroidism markers (e.g., plasma concentrations of parathyroid hormone and ionized serum calcium) and of serum calcitonin.

[8] = serum calcitonin in a human; type: in vivo; settings: single oral doses 20-400 mg
Source text: as §1

[9] = test system: increases in [Ca2+]i elicited by extracellular Ca2+ in bovine parathyroid cells; experiment: block of extracellular Ca2+-induced [Ca2+]i increase / Ca2+ influx in bovine parathyroid cells; type: cell-based; settings: 30 μM
[10] = test system: PTH secretion from bovine parathyroid cells; experiment: PTH secretion from bovine parathyroid cells; type: cell-based; settings: bovine parathyroid cells

Row | Cl- current [3] | SMILES | increase in intracellular calcium [1] | serum ionized Ca2+ as % of controls [2] | serum ionized Ca2+ in parathyroidectomized rats [4] | plasma calcitonin [5] | hypocalcemic response in thyroidectomized vs sham-operated animals [6] | serum ionized calcium in human [7] | serum calcitonin in human [8] | effect on [Ca2+]i increases elicited by extracellular Ca2+ [9] | inhibition of PTH secretion [10]
1 | rapid increase in Cl^- | COc1cccc([C@@H](C)NCCCc2ccccc2)c1 (single isomer, unassigned) [NPS R-467] | Robust increases | 83 % of controls | did not cause any change in serum ionized |  |  |  |  |  | 
2 |  | COc1cccc([C@@H](C)NCCCc2ccccc2Cl)c1 [NPS R-568, (R)-(+)-N-[3-(2-chlorophenyl)propyl]-amethyl-α-3-methoxybenzylamine] |  |  | fails to elicit a hypocalcemic response | an increase in calcitonin | equal in magnitude to that produced in sham-operated animals | decrease in serum ionized calcium concentration | no apparent change in serum calcitonin |  | 
3 |  | NC[C@@H]1O[C@H](O[C@H]2[C@@H](O)[C@H](O[C@@H]3[C@@H](O)[C@H](N)C[C@H](N)[C@H]3O[C@H]3O[C@H](CN)[C@@H](O)[C@H](O)[C@H]3N)O[C@@H]2CO)[C@H](N)[C@@H](O)[C@@H]1O [Neomycin] |  |  |  |  |  |  |  | blocks transient, but does not block steady-state increases | inhibited PTH secretion to the same extent
